Tests used:
[1] = tested on: healthy, nondependent, recreational stimulant users with intranasal insufflation experience; test: Intranasal abuse potential, VAS pharmacodynamic scores (Example 5); type: in vivo, human; settings: SDX Cl 80 mg
Protocol: Subjects who successfully completed the Screening Period returned to the clinic to complete the Drug Discrimination Phase. The Drug Discrimination Test was performed to ensure that subjects can differentiate between the effects of a single dose of d-methylphenidate hydrochloride and placebo, administered intranasally. Subjects who successfully completed the Drug Discrimination Phase remained as inpatients to enter the Treatment Phase. The Drug Discrimination Phase was a double-blind, intranasal, single-dose, 2-treatment, 2-period, 2-sequence, randomized, crossover design.
The placebo dose consisted of 80 mg of microcrystalline cellulose to create the same volume.
On dosing days in the Treatment Phase, blood samples were collected for the measurement of the plasma concentrations of SDX, d-methylphenidate (d-MPH), l-methylphenidate (l-MPH) and ritalinic acid at predose and at 0.25, 0.5, 0.75, 1, 1.5, 2, 3, 4, 5, 6, 7, 8, 9, 10, 12, 16, 24, 36, and 48 hours±5 minutes after each dose of study drug. […] All VAS pharmacodynamic assessments except Take Drug Again and Overall Drug Liking were performed at 0.25, 0.5, 0.75, 1, 1.5, 2, 3, 4, 5, 6, 7, 8, 10, 12, 24 hours±5 minutes postdose. In addition, predose assessments of Feeling High, and Drowsiness/Alertness were collected. The Take Drug Again and Overall Drug Liking VAS assessments were performed at 12 and 24 hours±5 minutes postdose.

[2] = tested on: healthy, nondependent, recreational stimulant users with intranasal insufflation experience; test: Treatment-emergent adverse events, intranasal study (Example 5, Table 54)
Protocol: The study consisted of a Screening Period, an in-clinic Drug Discrimination Phase, a Treatment Phase, and a Follow-Up Visit.
All subjects were required to fast for at least 8 hours prior to each dose of study drug until approximately 4 hours after each dose. Abuse potential measures and pharmacokinetic samples were collected at different times after the administration of study drug. Subjects who successfully completed the Drug Discrimination Phase and who qualified for the Treatment Phase remained as inpatients to enter the Treatment Phase.

[3] = tested on: healthy, nondependent, recreational stimulant users; test: Oral abuse potential, VAS pharmacodynamic scores (Example 4); settings: for Drug Liking Emax (mean) / Drug Liking Emax (median) / Feeling Alert/Drowsy Emax (mean) / Feeling Alert/Drowsy Emax (median) / Overall Drug Liking Emax (mean) / Overall Drug Liking Emax (median) / Take Drug Again Emax (mean) / Take Drug Again Emax (median): bipolar VAS; for Any Effects Emax (mean) / Any Effects Emax (median) / Bad Effects Emax (mean) / Bad Effects Emax (median) / Feeling High Emax (mean) / Feeling High Emax (median) / Good Effects Emax (mean) / Good Effects Emax (median): unipolar VAS
[4] = d-MPH HCl 40 mg, 12 hours, bipolar VAS
[5] = d-MPH HCl 40 mg, 24 hours, bipolar VAS
[6] = d-MPH HCl 40 mg (N = 46), SDX Cl 80 mg (N = 46)
[7] = SDX Cl 120 mg, Focalin XR 80 mg, phentermine HCl 60 mg

COC(=O)[C@H](c1ccccc1)[C@H]1CCCCN1C(=O)OC[n+]1cccc(C(=O)N[C@@H](CO)C(=O)O)c1.[Cl-] [serdexmethylphenidate chloride]
Mean difference Drug Liking Emax vs placebo [1]: 19.9 | Mean difference Overall Drug Liking vs placebo, 12 hours [1]: 10.3 | Mean difference Overall Drug Liking vs placebo, Emax [1]: 11.5 | Mean difference Any Effect Emax vs placebo ([1]; d-MPH HCl 40 mg): 48.8 | Mean difference Ease of Nasal Insufflation Emax vs placebo ([1]; d-MPH HCl 40 mg): 59.0 | Mean difference Feeling Drowsy/Alert Emax vs placebo ([1]; d-MPH HCl 40 mg): 20.1 | Mean difference Feeling High Emax vs placebo ([1]; d-MPH HCl 40 mg): 40.7 | Mean difference Good Effects Emax vs placebo ([1]; d-MPH HCl 40 mg): 44.2 | Mean difference Overall Drug Liking vs placebo, 24 hours ([1]; d-MPH HCl 40 mg): 8.8 | Mean difference Take Drug Again vs placebo, 12 hours ([1]; d-MPH HCl 40 mg): 7.6 | Mean difference Take Drug Again vs placebo, 24 hours ([1]; d-MPH HCl 40 mg): 6.7 | Mean difference Take Drug Again vs placebo, Emax ([1]; d-MPH HCl 40 mg): 10.8 | Median difference Bad Effects Emax vs placebo ([1]; d-MPH HCl 40 mg): 9.5 | Mean Overall Drug Liking [1, 4]: 60.4 | Mean Take Drug Again [1, 4]: 56.7 | Median Overall Drug Liking [1, 4]: 58 | Median Take Drug Again [1, 4]: 51 | Mean Overall Drug Liking [1, 5]: 59.0 | Mean Take Drug Again [1, 5]: 55.8 | Median Overall Drug Liking [1, 5]: 55 | Median Take Drug Again [1, 5]: 50 | Drug Liking Emax (mean) ([1]; d-MPH HCl 40 mg, bipolar VAS): 71.0 | Drug Liking Emax (median) ([1]; d-MPH HCl 40 mg, bipolar VAS): 71 | Feeling Drowsy/Alert Emax (mean) ([1]; d-MPH HCl 40 mg, bipolar VAS): 71.2 | Feeling Drowsy/Alert Emax (median) ([1]; d-MPH HCl 40 mg, bipolar VAS): 71 | Overall Drug Liking Emax (mean) ([1]; d-MPH HCl 40 mg, bipolar VAS): 61.8 | Overall Drug Liking Emax (median) ([1]; d-MPH HCl 40 mg, bipolar VAS): 58 | Take Drug Again Emax (mean) ([1]; d-MPH HCl 40 mg, bipolar VAS): 60.0 | Take Drug Again Emax (median) ([1]; d-MPH HCl 40 mg, bipolar VAS): 56 | Drug Liking Emax (mean) ([1]; d-MPH HCl 40 mg, bipolar VAS, listed as SDX chloride): 71 | Any Effect Emax (mean) ([1]; d-MPH HCl 40 mg, unipolar VAS): 49.4 | Any Effect Emax (median) ([1]; d-MPH HCl 40 mg, unipolar VAS): 47 | Bad Effects Emax (mean) ([1]; d-MPH HCl 40 mg, unipolar VAS): 14.9 | Bad Effects Emax (median) ([1]; d-MPH HCl 40 mg, unipolar VAS): 1 | Ease of Nasal Insufflation (mean) ([1]; d-MPH HCl 40 mg, unipolar VAS): 65.8 | Ease of Nasal Insufflation (median) ([1]; d-MPH HCl 40 mg, unipolar VAS): 71 | Feeling High Emax (mean) ([1]; d-MPH HCl 40 mg, unipolar VAS): 43.4 | Feeling High Emax (median) ([1]; d-MPH HCl 40 mg, unipolar VAS): 36 | Good Effects Emax (mean) ([1]; d-MPH HCl 40 mg, unipolar VAS): 44.9 | Good Effects Emax (median) ([1]; d-MPH HCl 40 mg, unipolar VAS): 42 | nasal discomfort, nasal congestion, rhinorrhoea, epistaxis, increased lacrimation, frequency vs intranasal d-MPH HCl ([2]; SDX Cl 80 mg vs d-MPH HCl 40 mg): occurred more often | TEAE: Back pain [2, 6]: 0 n (%) [E] | TEAE: Blood pressure diastolic increased [2, 6]: 0 n (%) [E] | TEAE: Bruxism [2, 6]: 0 n (%) [E] | TEAE: Change in sustained attention [2, 6]: 0 n (%) [E] | TEAE: Chest discomfort [2, 6]: 0 n (%) [E] | TEAE: Decreased appetite [2, 6]: 0 n (%) [E] | TEAE: Defaecation urgency [2, 6]: 0 n (%) [E] | TEAE: Dry mouth [2, 6]: 0 n (%) [E] | TEAE: Dry throat [2, 6]: 0 n (%) [E] | TEAE: Dysmenorrhoea (menstrual cramps) [2, 6]: 0 n (%) [E] | TEAE: Dyspepsia [2, 6]: 0 n (%) [E] | TEAE: Energy increased [2, 6]: 0 n (%) [E] | TEAE: Eye irritation [2, 6]: 0 n (%) [E] | TEAE: Feeling hot [2, 6]: 0 n (%) [E] | TEAE: Flushing [2, 6]: 0 n (%) [E] | TEAE: Haematoma [2, 6]: 0 n (%) [E] | TEAE: Hypopnoea (shallow breathing) [2, 6]: 0 n (%) [E] | TEAE: Infections and infestations [2, 6]: 0 n (%) [E] | TEAE: Investigations [2, 6]: 0 n (%) [E] | TEAE: Metabolism and nutrition disorders [2, 6]: 0 n (%) [E] | TEAE: Muscle tightness [2, 6]: 0 n (%) [E] | TEAE: Muscle twitching [2, 6]: 0 n (%) [E] | TEAE: Neck pain [2, 6]: 0 n (%) [E] | TEAE: Obsessive-compulsive disorder [2, 6]: 0 n (%) [E] | TEAE: Peripheral swelling [2, 6]: 0 n (%) [E] | TEAE: Pharyngeal hypoaesthesia (numbness of throat) [2, 6]: 0 n (%) [E] | TEAE: Pharyngitis [2, 6]: 0 n (%) [E] | TEAE: Phlebitis superficial [2, 6]: 0 n (%) [E] | TEAE: Phonophobia (fear of loud noises) [2, 6]: 0 n (%) [E] | TEAE: Photophobia [2, 6]: 0 n (%) [E] | TEAE: Pyrexia [2, 6]: 0 n (%) [E] | TEAE: Reproductive system and breast disorders [2, 6]: 0 n (%) [E] | TEAE: Restlessness [2, 6]: 0 n (%) [E] | TEAE: Sinus tachycardia [2, 6]: 0 n (%) [E] | TEAE: Tachycardia [2, 6]: 0 n (%) [E] | TEAE: Testis discomfort [2, 6]: 0 n (%) [E] | TEAE: Vascular disorders [2, 6]: 0 n (%) [E] | TEAE: Ventricular extrasystoles [2, 6]: 0 n (%) [E] | TEAE: Vessel puncture site bruise [2, 6]: 0 n (%) [E] | TEAE: Vessel puncture site pain [2, 6]: 0 n (%) [E] | TEAE: Visual impairment [2, 6]: 0 n (%) [E] | TEAE: Vomiting [2, 6]: 0 n (%) [E] | Mean difference Bad Effects Emax vs placebo ([3]; SDX Cl 120 mg, Focalin XR 80 mg): 1.3 | Mean difference Any Effects Emax vs placebo [3, 7]: 11.0 | Mean difference Drug Liking Emax vs placebo [3, 7]: 6.8 | Mean difference Feeling Alert/Drowsy Emax vs placebo [3, 7]: 7.7 | Mean difference Feeling High Emax vs placebo [3, 7]: 10.4 | Mean difference Good Effects Emax vs placebo [3, 7]: 12.1 | Mean difference Overall Drug Liking Emax vs placebo [3, 7]: 3.8 | Mean difference Take Drug Again Emax vs placebo [3, 7]: 2.2 | Drug Liking Emax (mean) [3, 7]: 62.8 | Drug Liking Emax (median) [3, 7]: 53.0 | Feeling Alert/Drowsy Emax (mean) [3, 7]: 64.4 | Feeling Alert/Drowsy Emax (median) [3, 7]: 54.0 | Overall Drug Liking Emax (mean) [3, 7]: 58.5 | Overall Drug Liking Emax (median) [3, 7]: 50.0 | Take Drug Again Emax (mean) [3, 7]: 57.4 | Take Drug Again Emax (median) [3, 7]: 50.0 | Any Effects Emax (mean) [3, 7]: 28.8 | Any Effects Emax (median) [3, 7]: 14.0 | Bad Effects Emax (mean) [3, 7]: 6.04 | Bad Effects Emax (median) [3, 7]: 0.0 | Feeling High Emax (mean) [3, 7]: 25.6 | Feeling High Emax (median) [3, 7]: 7.0 | Good Effects Emax (mean) [3, 7]: 27.0 | Good Effects Emax (median) [3, 7]: 10.0 | Mean difference Any Effects Emax vs placebo ([3]; SDX Cl 240 mg): 20.5 | Mean difference Bad Effects Emax vs placebo ([3]; SDX Cl 240 mg): 8.6 | Mean difference Drug Liking Emax vs placebo ([3]; SDX Cl 240 mg): 8.3 | Mean difference Feeling Alert/Drowsy Emax vs placebo ([3]; SDX Cl 240 mg): 11.2 | Mean difference Feeling High Emax vs placebo ([3]; SDX Cl 240 mg): 18.8 | Mean difference Good Effects Emax vs placebo ([3]; SDX Cl 240 mg): 17.4 | Mean difference Overall Drug Liking Emax vs placebo ([3]; SDX Cl 240 mg): 3.3 | Mean difference Take Drug Again Emax vs placebo ([3]; SDX Cl 240 mg): 1.7 | Drug Liking Emax (mean) ([3]; SDX Cl 240 mg): 63.8 | Drug Liking Emax (median) ([3]; SDX Cl 240 mg): 59.0 | Feeling Alert/Drowsy Emax (mean) ([3]; SDX Cl 240 mg): 67.4 | Feeling Alert/Drowsy Emax (median) ([3]; SDX Cl 240 mg): 64.0 | Overall Drug Liking Emax (mean) ([3]; SDX Cl 240 mg): 58.0 | Overall Drug Liking Emax (median) ([3]; SDX Cl 240 mg): 51.0 | Take Drug Again Emax (mean) ([3]; SDX Cl 240 mg): 56.9 | Take Drug Again Emax (median) ([3]; SDX Cl 240 mg): 50.0 | Any Effects Emax (mean) ([3]; SDX Cl 240 mg): 37.0 | Any Effects Emax (median) ([3]; SDX Cl 240 mg): 23.0 | Bad Effects Emax (mean) ([3]; SDX Cl 240 mg): 13.4 | Bad Effects Emax (median) ([3]; SDX Cl 240 mg): 0.0 | Feeling High Emax (mean) ([3]; SDX Cl 240 mg): 32.1 | Feeling High Emax (median) ([3]; SDX Cl 240 mg): 19.0 | Good Effects Emax (mean) ([3]; SDX Cl 240 mg): 30.8 | Good Effects Emax (median) ([3]; SDX Cl 240 mg): 15.0
